Data taken from US12576129B2, “Anthelmintic compositions and methods” (priority 2016, dated 2026).
≈ marks a conversion by molar mass, not a printed value. Like-named read-outs stand apart in the source and are kept apart here.

Legend:
[1] = tested on: Ancylostoma ceylanicum hookworms; conditions: cited from earlier work; for % Parasite reduction: A. ceylanicum infections in hamsters
BaCC [2] = test: Minimum inhibitory concentration of terpenes against BaCC (broth microdilution); assay type: cell-based; conditions: Bacillus thuringiensis; 24 h at 30° C. in LB; no absorbance increase; read-out: MIC μg/mL (100)
Method: Three terpenes were tested against BaCC including: carvacrol, geraniol and farnesol, by using the broth microdilution method as described in Agaisse and Lereclus, J. Bacteriol. 176, 4734-4741, 1994 and Agaisse and Lereclus, Mol. Microbiol. 13, 97-107, 1994 with some modifications. Briefly, BaCC from a single colony was grown in 5 mL of LB medium supplemented with 10 μg/mL erythromycin+200 μg/mL kanamycin overnight (O.D. (600) of 4.8, 2.3×10^7 CFU/mL). Terpene solutions were prepared at 1 mg/mL in LB. One hundred μL of two-fold serial dilutions of each terpene in LB were prepared in 96-well microtiter plates over the range of 1000 to 3.9 μg/mL in triplicate. LB without terpenes was used as a negative control. BaCC culture was diluted 100 times, and 100 μL of BaCC culture was added to the wells. Absorbance at 600 nm was recorded before and after the incubation to monitor bacterial growth. The MICs were determined after incubation for 24 h at 30° C. without shaking.

BaCC [3] = test: Time to kill: CFU/mL of BaCC after terpene treatment; assay type: cell-based, Bacillus thuringiensis
Method: In order to determine which terpene kills BaCC in the shortest amount of time, we incubated 5 mL of BaCC culture with three terpenes at 1 mg/mL at 4° C. for 1, 2, 3 and 5 hours. No terpene control and no bacteria controls were carried out simultaneously. After incubation with terpenes, samples were centrifuged and the pellets were washed with 5 mL of 1M NaCl once and 5 mL of sterile distilled water twice in order to remove the terpenes. The pellets were re-suspended in the original volume and plated on LB agar with kanamycin and erythromycin. Plates were incubated overnight at 30° C.; the next day, the number of colonies on the plates were enumerated and colony forming units (CFU)/mL calculated.
To assess terpene killing at shorter time points, BaCC culture was grown in 3× LB for 48 h as described above and 60 ml of cultures were aliquoted in sterile tubes. Carvacrol and geraniol were added to the final concentration of 1 mg/mL, and the tubes were placed on a rotator at 4° C. for 15 minutes. The negative control was prepared using sterile water instead of terpenes. At the end of the incubation period, the tubes were centrifuged at 2000× g for 10 minutes and pellets washed with 60 ml of 1 M NaCl once and washed with 60 mL of sterile distilled water twice. Pellets were re-suspended in 1.2 mL of sterile distilled water to concentrate the culture 50 times. Concentrated terpene treated and control samples were plated on LB agar plates containing kanamycin and erythromycin and incubated overnight at 30° C. The number of colonies were counted the next day and CFU/mL calculated for each time point.

Ancylostoma caninum = Ancylostoma caninum hookworm infection in dogs (fecal egg count, capsule endoscopy); assay type: in vivo
Method: Two beagles were inoculated per os with 1000 Ancylostoma caninum larvae. Forty one days post-infection, stool was collected for determination of fecal egg loads and the dog intestines were imaged using capsule endoscopy to count hookworms (Lee, A., et al. Int. J. Parasitol. 41, 1377-1383, 2011). One dose of Cry5B SCL (˜40 mg/kg) was given by gavage on each of day 42 and 44 post-infection. On day 49 post-infection a final fecal egg count was taken and capsule endoscopy repeated for final hookworm counts.

[4] = tested on: Heligmosomoides polygyrus; test: Heligmosomoides polygyrus infection in STAT6-/- mice; assay type: in vivo; conditions: immunosuppressed mice lacking STAT6
Source text: Such a result is not surprising given that Cry5B directly intoxicates STH parasites in vitro. This is not true of all anthelmintics, e.g., DEC and in some cases ivermectin, for which it appears that involvement of the immune system is important for their mechanism of action. To confirm that the immune system is not essential for Cry5B action, STAT6−/− mice were infected with Heligmosomoides polygyrus STH parasites. STAT6 is required for the TH2 response required for normal expulsion of STH parasites.

[5] = tested on: Ancylostoma ceylanicum hookworms; test: A. ceylanicum hookworm curative experiment in Syrian hamsters (worm burdens, fecal egg counts); assay type: in vivo
Method: Studies of Ancylostoma ceylanicum hookworms in Syrian hamsters were carried out as previously described (Hu, Y., et al. PLoS One, 8, e70702, 2013; Hu, Y., et al. Appl Environ Microbiol, 79, 5527-5532, 2013). Briefly, 4-6 week old male hamsters were infected with 150 infectious third staged larvae per os. On day 17 post-infection, an overnight collection of stool is taken and fecal egg counts (FECs) taken the next day. The hamsters are assigned to groups based on FEC so that there is roughly the same level of infection (same average egg per gram of feces or EPG) in all groups. On day 18 post-infection, the hamsters are weighed for dosing purposes and then gavaged with treatments as described in each experiment. On day 21 post-infection, another overnight collection of stool is taken for FECs. On day 22 post-infection, the animals were euthanized. Total hookworms in the small intestine were counted and EPGs calculated.
For all experiments involving cimetidine, hamsters or mice were pre-gavaged with 200 μL of an 8.75% cimetidine solution 15 minutes prior to therapeutic treatment (Stepek, G., et al. Parasitology, 134, 103-112, 2007).
For in vivo curative experiments, male hamsters were infected per os with 150 A. ceylanicum infectious larvae. On day 17 postinoculation (p.i.), a fecal sample was collected from each hamster, and the number of eggs was counted using the modified McMaster technique (13). On the basis of these fecal egg counts, the hamsters were segregated to ensure that the groups (control and treatment) had roughly equivalent infection levels. […] The hamsters were sacrificed on day 22 p.i., and intestinal parasite burdens were determined as described previously (14). The one-tailed Mann-Whitney test was performed to compare the two groups for significance in the experiment using a dose of 10 mg/kg of body weight (data were calculated and plotted using Prism 5 [GraphPad Software Inc., La Jolla, CA]). […]

[6] = Average of dogs (n = 2), 40 mg/kg
[7] = dogs (n = 2), post- vs pre-treatment, 40 mg/kg

## C/C(=N/c1ccc(/N=C/c2ccc(/C=N/c3ccc(/N=C(/C)N(C)C)cc3)cc2)cc1)N(C)C [Tribendimidine, tribendimidine]
[1]; 10 mg/kg
  % Parasite reduction: 75%
[1]; hamsters, 10-mg/kg dose
  reduction of A. ceylanicum burdens: 75%

## CC(C)=CCCC(C)=CCCC(C)=CCO [Farnesol, farnesol]
BaCC [2]
  MIC: 500 µg/mL (≈ 2250 µM)
BaCC [3]; 1 h at 4° C.
  CFU/ml (1 mg/mL terpene treatment for time indicated): 1.00 × 10^7 CFU/ml
BaCC [3]; 3 h at 4° C.
  CFU/ml (1 mg/mL terpene treatment for time indicated): 1.30 × 10^5 CFU/ml
BaCC [3]; 5 h at 4° C.
  CFU/ml (1 mg/mL terpene treatment for time indicated): 0 CFU/ml
BaCC [3]; time 0
  CFU/ml (1 mg/mL terpene treatment for time indicated): 2.31 × 10^7 CFU/ml

## CCCSc1ccc2nc(NC(=O)OC)[nH]c2c1 [Albendazole, albendazole]
[1]; 1.25 mg/kg
  % Parasite reduction: 88%
[1]; hamsters, 1.25-mg/kg (4.7 μmol/kg) dose
  reduction of A. ceylanicum burdens: 88%
[1]; in vivo
  dose required to clear the same infection: 5 mg/kg

## c1ccc([C@H]2CN3CCSC3=N2)cc1 [Levamisole, levamisole]
[1]; 10 mg/kg
  % Parasite reduction: 60%
[1]; hamsters, 10-mg/kg dose
  reduction of A. ceylanicum burdens: 60%

## CN1CCCN=C1/C=C/c1cccs1 [Pyrantel, pyrantel]
[1]; 10 mg/kg
  % Parasite reduction: 87%
[1]; hamsters, 10-mg/kg dose
  reduction of A. ceylanicum burdens: 87%

## CC(C)=CCC/C(C)=C/CO [Geraniol, geraniol]
BaCC [2]
  MIC: 500 µg/mL (≈ 3240 µM)
BaCC [3]; 15 min at 4° C., culture concentrated 50 times (50X conc.) before plating
  CFU/ml (1 mg/mL terpene treatment for time indicated): 100 CFU/ml
BaCC [3]; 1 h at 4° C.
  CFU/ml (1 mg/mL terpene treatment for time indicated): 0 CFU/ml
BaCC [3]; 3 h at 4° C.
  CFU/ml (1 mg/mL terpene treatment for time indicated): 0 CFU/ml
BaCC [3]; 5 h at 4° C.
  CFU/ml (1 mg/mL terpene treatment for time indicated): 0 CFU/ml
BaCC [3]; time 0
  CFU/ml (1 mg/mL terpene treatment for time indicated): 2.31 × 10^7 CFU/ml

B1: Cry5B: Bacillus thuringiensis crystal (Cry) protein Cry5B, SEQ ID NO:1; purified full-length protein (protein, listed as Bacillus thuringiensis)
chain: MATINELYPVPYNVLAHPIKEVDDPYSWSNLLKGIQEGWEEWGKTGQKKLFEDHLTIAWNLYKTGKLDYFALTKASISLIGFIPGAEAAVPFINMFVDFVWPKLFGANTEGKDQQLFNAIMDAVNKMVDNKFLSYNLSTLNKTIEGLQGNLGLFQNAIQVAICQGSTPERVNFDQNCTPCNPNQPCKDDLDRVASRFDTANSQFTQHLPEFKNPWSDENSTQEFKRTSVELTLPMYTTVATLHLLLYEGYIEFMTKWNFHNEQYLNNLKVELQQLIHSYSETVRTSFLQFLPTLNNRSKSSVNAYNRYVRNMTVNCLDIAATWPTFDTHNYHQGGKLDLTRIILSDTAGPIEEYTTGDKTSGPEHSNITPNNILDTPSPTYQHSFVSVDSIVYSRKELQQLDIATYSTNNSNNCHPYGLRLSYTDGSRYDYGDNQPDFTTSNNNYCHNSYTAPITLVNARHLYNAKGSLQNVESLVVSTVNGGSGSCICDAWINYLRPPQTSKNESRPDQKINVLYPITETVNKGTGGNLGVISAYVPMELVPENVIGDVNADTKLPLTQLKGFPFEKYGSEYNNRGISLVREWINGNNAVKLSNSQSVGIQITNQTKQKYEIRCRYASKGDNNVYFNVDLSENPFRNSISFGSTESSVVGVQGENGKYILKSITTVEIPAGSFYVHITNQGSSDLFLDRIEFVPKIQFQFCDNNNLHCDCNNPVDTDCTFCCVCTSLTDCDCNNPRGLDCTLCCQVENQLPSFVTLTDLQNITTQVNALVASSEHDTLATDVSDYEIEEVVLKVDALSGEVFGKEKKALRKLVNHTKRLSKARNLLIGGNFDNLDAWYRGRNVVNVSDHELFKSDHVLLPPPTLYSSYMFQKVEESKLKANTRYTVSGFIAHAEDLEIVVSRYGQEVKKVVQVPYGEAFPLTSRGAICCPPRSTSNGKPADPHFFSYSIDVGTLDVEANPGIELGLRIVERTGMARVSNLEIREDRPLKKNELRNVQRAARNWRTAYDQERAEVTALIQPVLNQINALYENEDWNGAIRSGVSYHDLEAIVLPTLPKLNHWFMSDMLGEQGSILAQFQEALDRAYTQLEESTILHNGHFTTDAANWTIEGDAHHAILEDGRRVLRLPDWSSSVSQTIEIENFDPDKEYQLVFHAQGEGTVSLQHGEEGEYVETHPHKSANFTTSHRQGVTFETNKVTVEITSEDGEFLVDHIALVEAPLPTDDQSSDGNTTSNTNSNTSMNNNQ
modifications: source = /note="Bacillus thuringiensis pesticidal crystal (Cry)"
Ancylostoma caninum; Average of dogs (n = 2)
  Fecal Egg Count Pre-Treatment: 12581 EPG of Feces
  Hookworm Burden Pre-Treatment: 70
Ancylostoma caninum; [6]
  Fecal Egg Count Post-Treatment: 1081.5 EPG of Feces
  Hookworm Burden Post-Treatment: 3.5
Ancylostoma caninum; Dog 1, capsule endoscopy, day 41 post-infection
  Hookworm Burden Pre-Treatment: 84
Ancylostoma caninum; Dog 1, capsule endoscopy, day 49, ~40 mg/kg on days 42 and 44
  Hookworm Burden Post-Treatment: 4
Ancylostoma caninum; Dog 1, day 41 post-infection
  Fecal Egg Count Pre-Treatment: 15750 EPG of Feces
Ancylostoma caninum; Dog 1, day 49 post-infection, ~40 mg/kg by gavage on days 42 and 44
  Fecal Egg Count Post-Treatment: 1590 EPG of Feces
Ancylostoma caninum; Dog 2, capsule endoscopy, day 41 post-infection
  Hookworm Burden Pre-Treatment: 56
Ancylostoma caninum; Dog 2, capsule endoscopy, day 49, ~40 mg/kg on days 42 and 44
  Hookworm Burden Post-Treatment: 3
Ancylostoma caninum; Dog 2, day 41 post-infection
  Fecal Egg Count Pre-Treatment: 9412 EPG of Feces
Ancylostoma caninum; Dog 2, day 49 post-infection, ~40 mg/kg by gavage on days 42 and 44
  Fecal Egg Count Post-Treatment: 573 EPG of Feces
Ancylostoma caninum; [7]
  % Reduction of Fecal Egg Count: 91.4%
  % Reduction of Hookworm Burden: 95%
Ancylostoma caninum; ~40 mg/kg by gavage on days 42 and 44 post-infection
  efficacy against A. caninum in dogs: highly effective
[4]
  efficacy against H. polygyrus: effective
[5]; A. ceylanicum infections in hamsters, 10 mg/kg, This Example
  % Parasite reduction: 93%
[5]; hamsters
  efficacy after pre-exposure to two doses of Cry5B prior to infection: not altered
[5]; hamsters pre-gavaged with cimetidine (and NaHCO3) before treatment
  effect of pre-neutralization of stomach acid on efficacy: improved
[1]; hamsters, purified protein at 10 mg/kg, previously published data (ref 14)
  hookworm burden reduction: 65%
